Results from the supplement of paper PMC10307832.

Columns and labels:
Assay in all cases: relative viability (nuclei count vs DMSO), 5 days (fraction); higher = more cells survive
IA-LM = tested on: IA-LM
How it was run: (§1)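 Relative viability divides the nuclei count in treated wells by that in vehicle wells. Lung cancer cell lines were seeded in 1536-well plates, dosed by pin tool the next day, and fixed and stained after 5 days in one step with final 0.05% Triton X-100, 1% formaldehyde and 1 ug/ml Hoechst. Dosing was a single drug or a fixed anchor-drug dose plus five library-drug doses (not always all listed) in √10 steps, and values are medians of duplicate plates imaged at 4×.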

LC-2-ad = tested on: LC-2-ad
How it was run: as §1

Calu-6 = tested on: Calu-6
How it was run: as §1

EKVX = tested on: EKVX
How it was run: as §1

NCI-H1703 = tested on: NCI-H1703
How it was run: as §1

A549 = tested on: A549
How it was run: as §1

EBC-1 = tested on: EBC-1
How it was run: as §1

NCI-H1299 = tested on: NCI-H1299
How it was run: as §1

NCI-H1666 = tested on: NCI-H1666
How it was run: as §1

CN1CCN(CCOc2cc(OC3CCOCC3)c3c(Nc4c(Cl)ccc5c4OCO5)ncnc3c2)CC1 [Saracatinib] + CS(=O)(=O)CCNCc1ccc(-c2ccc3ncnc(Nc4ccc(OCc5cccc(F)c5)c(Cl)c4)c3c2)o1 [Lapatinib] (partner 2 µM)
relative viability (IA-LM; first compound 0.02 µM): 0.803
relative viability (IA-LM; first compound 0.2 µM): 0.799
relative viability (IA-LM; first compound 0.6325 µM): 1.19
relative viability (IA-LM; first compound 2 µM): 0.799
relative viability (LC-2-ad; first compound 0.02 µM): 1.06
relative viability (LC-2-ad; first compound 0.6325 µM): 0.998
relative viability (LC-2-ad; first compound 2 µM): 0.761
relative viability (Calu-6; first compound 0.02 µM): 1.08
relative viability (Calu-6; first compound 0.2 µM): 0.839
relative viability (Calu-6; first compound 0.6325 µM): 0.913
relative viability (Calu-6; first compound 2 µM): 0.745
relative viability (EKVX; first compound 0.02 µM): 0.222
relative viability (EKVX; first compound 0.2 µM): 0.165
relative viability (EKVX; first compound 0.6325 µM): 0.238
relative viability (EKVX; first compound 2 µM): 0.131
relative viability (NCI-H1703; first compound 0.02 µM): 0.873
relative viability (NCI-H1703; first compound 0.2 µM): 1.02
relative viability (NCI-H1703; first compound 0.6325 µM): 0.376
relative viability (NCI-H1703; first compound 2 µM): 0.283
relative viability (A549; first compound 0.02 µM): 1.06
relative viability (A549; first compound 0.2 µM): 1.01
relative viability (A549; first compound 0.6325 µM): 0.812
relative viability (A549; first compound 2 µM): 0.791
relative viability (EBC-1; first compound 0.02 µM): 0.199
relative viability (EBC-1; first compound 0.2 µM): 0.23
relative viability (EBC-1; first compound 0.6325 µM): 0.197
relative viability (EBC-1; first compound 2 µM): 0.212
relative viability (NCI-H1299; first compound 0.02 µM): 0.982
relative viability (NCI-H1299; first compound 0.2 µM): 1.02
relative viability (NCI-H1299; first compound 0.6325 µM): 1
relative viability (NCI-H1299; first compound 2 µM): 0.941
relative viability (NCI-H1666; first compound 0.02 µM): 0.686
relative viability (NCI-H1666; first compound 0.2 µM): 0.629
relative viability (NCI-H1666; first compound 0.6325 µM): 0.777
relative viability (NCI-H1666; first compound 2 µM): 0.872

CCNC(=O)c1noc(-c2cc(C(C)C)c(O)cc2O)c1-c1ccc(CN2CCOCC2)cc1 [Luminespib] + Cc1nc(NC(=O)N2CCC[C@H]2C(N)=O)sc1-c1ccnc(C(C)(C)C(F)(F)F)c1 [Alpelisib] (partner 2 µM)
relative viability (IA-LM; first compound 0.002 µM): 0.752
relative viability (IA-LM; first compound 0.006325 µM): 0.788
relative viability (IA-LM; first compound 0.02 µM): 0.268
relative viability (IA-LM; first compound 0.06325 µM): 0.0487
relative viability (IA-LM; first compound 0.2 µM): 0.05
relative viability (LC-2-ad; first compound 0.002 µM): 0.881
relative viability (LC-2-ad; first compound 0.006325 µM): 0.821
relative viability (LC-2-ad; first compound 0.02 µM): 0.858
relative viability (LC-2-ad; first compound 0.06325 µM): 0.123
relative viability (LC-2-ad; first compound 0.2 µM): 0.092
relative viability (Calu-6; first compound 0.002 µM): 0.975
relative viability (Calu-6; first compound 0.006325 µM): 0.949
relative viability (Calu-6; first compound 0.02 µM): 0.783
relative viability (Calu-6; first compound 0.06325 µM): 0.131
relative viability (Calu-6; first compound 0.2 µM): 0.12
relative viability (EKVX; first compound 0.002 µM): 0.972
relative viability (EKVX; first compound 0.006325 µM): 0.928
relative viability (EKVX; first compound 0.02 µM): 0.514
relative viability (EKVX; first compound 0.06325 µM): 1.07
relative viability (EKVX; first compound 0.2 µM): 0.315
relative viability (NCI-H1703; first compound 0.002 µM): 0.378
relative viability (NCI-H1703; first compound 0.006325 µM): 0.367
relative viability (NCI-H1703; first compound 0.02 µM): 0.186
relative viability (NCI-H1703; first compound 0.06325 µM): 0.133
relative viability (NCI-H1703; first compound 0.2 µM): 0.116
relative viability (A549; first compound 0.002 µM): 0.804
relative viability (A549; first compound 0.006325 µM): 0.71
relative viability (A549; first compound 0.02 µM): 0.255
relative viability (A549; first compound 0.06325 µM): 0.0392
relative viability (A549; first compound 0.2 µM): 0.036
relative viability (EBC-1; first compound 0.002 µM): 0.825
relative viability (EBC-1; first compound 0.006325 µM): 0.741
relative viability (EBC-1; first compound 0.02 µM): 0.228
relative viability (EBC-1; first compound 0.06325 µM): 0.146
relative viability (EBC-1; first compound 0.2 µM): 0.131
relative viability (NCI-H1299; first compound 0.002 µM): 1
relative viability (NCI-H1299; first compound 0.006325 µM): 1
relative viability (NCI-H1299; first compound 0.02 µM): 1.15
relative viability (NCI-H1299; first compound 0.06325 µM): 0.961
relative viability (NCI-H1299; first compound 0.2 µM): 0.483
relative viability (NCI-H1666; first compound 0.002 µM): 1
relative viability (NCI-H1666; first compound 0.006325 µM): 1.01
relative viability (NCI-H1666; first compound 0.02 µM): 0.985
relative viability (NCI-H1666; first compound 0.06325 µM): 1.01
relative viability (NCI-H1666; first compound 0.2 µM): 0.795

CCNC(=O)c1noc(-c2cc(C(C)C)c(O)cc2O)c1-c1ccc(CN2CCOCC2)cc1 [Luminespib] + CS(=O)(=O)CCNCc1ccc(-c2ccc3ncnc(Nc4ccc(OCc5cccc(F)c5)c(Cl)c4)c3c2)o1 [Lapatinib] (partner 2 µM)
relative viability (IA-LM; first compound 0.002 µM): 0.929
relative viability (IA-LM; first compound 0.006325 µM): 0.935
relative viability (IA-LM; first compound 0.02 µM): 0.643
relative viability (IA-LM; first compound 0.06325 µM): 0.0552
relative viability (IA-LM; first compound 0.2 µM): 0.066
relative viability (LC-2-ad; first compound 0.002 µM): 0.928
relative viability (LC-2-ad; first compound 0.006325 µM): 0.954
relative viability (LC-2-ad; first compound 0.02 µM): 0.659
relative viability (LC-2-ad; first compound 0.06325 µM): 0.498
relative viability (LC-2-ad; first compound 0.2 µM): 0.0905
relative viability (Calu-6; first compound 0.002 µM): 1.11
relative viability (Calu-6; first compound 0.006325 µM): 0.962
relative viability (Calu-6; first compound 0.02 µM): 1.38
relative viability (Calu-6; first compound 0.06325 µM): 0.166
relative viability (Calu-6; first compound 0.2 µM): 0.119
relative viability (EKVX; first compound 0.002 µM): 0.183
relative viability (EKVX; first compound 0.006325 µM): 0.228
relative viability (EKVX; first compound 0.02 µM): 0.175
relative viability (EKVX; first compound 0.06325 µM): 0.158
relative viability (EKVX; first compound 0.2 µM): 0.0973
relative viability (NCI-H1703; first compound 0.002 µM): 1.14
relative viability (NCI-H1703; first compound 0.006325 µM): 1.07
relative viability (NCI-H1703; first compound 0.02 µM): 0.998
relative viability (NCI-H1703; first compound 0.06325 µM): 0.158
relative viability (NCI-H1703; first compound 0.2 µM): 0.16
relative viability (A549; first compound 0.002 µM): 0.983
relative viability (A549; first compound 0.006325 µM): 0.903
relative viability (A549; first compound 0.02 µM): 0.897
relative viability (A549; first compound 0.06325 µM): 0.627
relative viability (A549; first compound 0.2 µM): 0.0491
relative viability (EBC-1; first compound 0.002 µM): 0.204
relative viability (EBC-1; first compound 0.006325 µM): 0.223
relative viability (EBC-1; first compound 0.02 µM): 0.233
relative viability (EBC-1; first compound 0.06325 µM): 0.187
relative viability (EBC-1; first compound 0.2 µM): 0.194
relative viability (NCI-H1299; first compound 0.002 µM): 1.04
relative viability (NCI-H1299; first compound 0.006325 µM): 0.965
relative viability (NCI-H1299; first compound 0.02 µM): 0.989
relative viability (NCI-H1299; first compound 0.06325 µM): 0.892
relative viability (NCI-H1299; first compound 0.2 µM): 0.219
relative viability (NCI-H1666; first compound 0.002 µM): 0.717
relative viability (NCI-H1666; first compound 0.006325 µM): 0.709
relative viability (NCI-H1666; first compound 0.02 µM): 0.585
relative viability (NCI-H1666; first compound 0.06325 µM): 0.718
relative viability (NCI-H1666; first compound 0.2 µM): 0.533
